Data taken from PubChem BioAssay (NCI).
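Grown in 96-well plates, cells were treated for 48 hours with each compound at five concentrations. Insufficient inhibition: endpoint recorded as highest concentration tested. At the GI50, growth is halved. TGI marks complete inhibition of growth.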

Assays:
Assay in all cases: DTP human tumour cell line panel, 48 h
RPMI-8226 leukemia = tested on: RPMI-8226 leukemia
SF-268 CNS = tested on: SF-268 CNS
HCC-2998 colon = tested on: HCC-2998 colon
SK-OV-3 ovarian = tested on: SK-OV-3 ovarian
TK-10 renal = tested on: TK-10 renal
ACHN renal = tested on: ACHN renal
EKVX NSCLC = tested on: EKVX NSCLC
SNB-19 CNS = tested on: SNB-19 CNS
KM12 colon = tested on: KM12 colon
K-562 leukemia = tested on: K-562 leukemia
OVCAR-3 ovarian = tested on: OVCAR-3 ovarian
MDA-MB-231 breast = tested on: MDA-MB-231 breast
HOP-92 NSCLC = tested on: HOP-92 NSCLC
DU-145 prostate = tested on: DU-145 prostate
U251 CNS = tested on: U251 CNS
SF-295 CNS = tested on: SF-295 CNS
SK-MEL-28 melanoma = tested on: SK-MEL-28 melanoma
CCRF-CEM leukemia = tested on: CCRF-CEM leukemia
HT29 colon = tested on: HT29 colon
NCI-H522 lung = tested on: NCI-H522 lung
HL-60(TB) leukemia = tested on: HL-60(TB) leukemia
SN12C renal = tested on: SN12C renal
MDA-MB-435 = tested on: MDA-MB-435
CAKI-1 renal = tested on: CAKI-1 renal
MALME-3M melanoma = tested on: MALME-3M melanoma
UO-31 renal = tested on: UO-31 renal
BT-549 breast = tested on: BT-549 breast
RXF 393 renal = tested on: RXF 393 renal
OVCAR-8 ovarian = tested on: OVCAR-8 ovarian
HOP-62 NSCLC = tested on: HOP-62 NSCLC
NCI-H460 lung = tested on: NCI-H460 lung
SNB-75 CNS = tested on: SNB-75 CNS
NCI-H23 lung = tested on: NCI-H23 lung
UACC-257 melanoma = tested on: UACC-257 melanoma
T-47D breast = tested on: T-47D breast
COLO 205 colon = tested on: COLO 205 colon
OVCAR-5 ovarian = tested on: OVCAR-5 ovarian
MOLT-4 leukemia = tested on: MOLT-4 leukemia
SW-620 colon = tested on: SW-620 colon
UACC-62 melanoma = tested on: UACC-62 melanoma
SF-539 CNS = tested on: SF-539 CNS
OVCAR-4 ovarian = tested on: OVCAR-4 ovarian
MCF7 breast = tested on: MCF7 breast
SK-MEL-5 melanoma = tested on: SK-MEL-5 melanoma
M14 melanoma = tested on: M14 melanoma
SR leukemia = tested on: SR leukemia
NCI-H226 lung = tested on: NCI-H226 lung
PC-3 prostate = tested on: PC-3 prostate
A498 renal = tested on: A498 renal
A549 NSCLC = tested on: A549 NSCLC
786-0 renal = tested on: 786-0 renal
HS 578T breast = tested on: HS 578T breast
HCT-116 colon = tested on: HCT-116 colon
LOX IMVI melanoma = tested on: LOX IMVI melanoma
HCT-15 colon = tested on: HCT-15 colon
SK-MEL-2 melanoma = tested on: SK-MEL-2 melanoma

COc1cc(/C=C/C(=O)c2cc(OC)c(OC)c(OC)c2)cc(OC)c1OC
GI50 (RPMI-8226 leukemia): 2560 nM
TGI (RPMI-8226 leukemia): 19.4 µM
GI50 (SF-268 CNS): 2770 nM
TGI (SF-268 CNS): 10 µM
GI50 (HCC-2998 colon): 2950 nM
TGI (HCC-2998 colon): 6.65 µM
GI50 (SK-OV-3 ovarian): 11.5 µM
TGI (SK-OV-3 ovarian): > 100000 nM
GI50 (TK-10 renal): 4.42 µM
TGI (TK-10 renal): 59.2 µM
GI50 (ACHN renal): 4.73 µM
TGI (ACHN renal): 46.8 µM
GI50 (EKVX NSCLC): 2630 nM
TGI (EKVX NSCLC): 21.5 µM
GI50 (SNB-19 CNS): 11 µM
TGI (SNB-19 CNS): 27.3 µM
GI50 (KM12 colon): 1980 nM
TGI (KM12 colon): 4.84 µM
GI50 (K-562 leukemia): 2460 nM
TGI (K-562 leukemia): > 100 µM
GI50 (OVCAR-3 ovarian): 1910 nM
TGI (OVCAR-3 ovarian): 4.21 µM
GI50 (MDA-MB-231 breast): 6.89 µM
TGI (MDA-MB-231 breast): > 100 µM
GI50 (HOP-92 NSCLC): 2530 nM
TGI (HOP-92 NSCLC): 20.5 µM
GI50 (DU-145 prostate): 2030 nM
TGI (DU-145 prostate): 5.95 µM
GI50 (U251 CNS): 3.21 µM
TGI (U251 CNS): 16.6 µM
GI50 (SF-295 CNS): 2180 nM
TGI (SF-295 CNS): 7.85 µM
GI50 (SK-MEL-28 melanoma): 8.57 µM
TGI (SK-MEL-28 melanoma): 24.3 µM
GI50 (CCRF-CEM leukemia): 2250 nM
TGI (CCRF-CEM leukemia): > 100 µM
GI50 (HT29 colon): 3.64 µM
TGI (HT29 colon): 15 µM
GI50 (NCI-H522 lung): 3.09 µM
TGI (NCI-H522 lung): 12.1 µM
GI50 (HL-60(TB) leukemia): 1210 nM
TGI (HL-60(TB) leukemia): 11.2 µM
GI50 (SN12C renal): 4.02 µM
TGI (SN12C renal): 20.8 µM
GI50 (MDA-MB-435): 2280 nM
TGI (MDA-MB-435): 8.11 µM
GI50 (CAKI-1 renal): 1230 nM
TGI (CAKI-1 renal): 3.87 µM
GI50 (MALME-3M melanoma): 2480 nM
TGI (MALME-3M melanoma): 19.6 µM
GI50 (UO-31 renal): 2050 nM
TGI (UO-31 renal): 12.1 µM
GI50 (BT-549 breast): 2480 nM
TGI (BT-549 breast): 9.26 µM
GI50 (RXF 393 renal): 2810 nM
TGI (RXF 393 renal): 11.4 µM
GI50 (OVCAR-8 ovarian): 3.49 µM
TGI (OVCAR-8 ovarian): > 100 µM
GI50 (HOP-62 NSCLC): 4.07 µM
TGI (HOP-62 NSCLC): 18.2 µM
GI50 (NCI-H460 lung): 1890 nM
TGI (NCI-H460 lung): 4.07 µM
GI50 (SNB-75 CNS): 2310 nM
TGI (SNB-75 CNS): 9.41 µM
GI50 (NCI-H23 lung): 3.15 µM
TGI (NCI-H23 lung): 13.7 µM
GI50 (UACC-257 melanoma): 4.35 µM
TGI (UACC-257 melanoma): 34.6 µM
GI50 (T-47D breast): 3.5 µM
TGI (T-47D breast): 31.5 µM
GI50 (COLO 205 colon): 9.09 µM
TGI (COLO 205 colon): 25.8 µM
GI50 (OVCAR-5 ovarian): 5.68 µM
TGI (OVCAR-5 ovarian): 20.1 µM
GI50 (MOLT-4 leukemia): 2800 nM
TGI (MOLT-4 leukemia): 48.6 µM
GI50 (SW-620 colon): 2180 nM
TGI (SW-620 colon): 5.67 µM
GI50 (UACC-62 melanoma): 5.93 µM
TGI (UACC-62 melanoma): 20.4 µM
GI50 (SF-539 CNS): 3.21 µM
TGI (SF-539 CNS): 12.9 µM
GI50 (OVCAR-4 ovarian): 3.63 µM
TGI (OVCAR-4 ovarian): 57.8 µM
GI50 (MCF7 breast): 3.05 µM
TGI (MCF7 breast): 15.3 µM
GI50 (SK-MEL-5 melanoma): 8.33 µM
TGI (SK-MEL-5 melanoma): 21.1 µM
GI50 (M14 melanoma): 2820 nM
TGI (M14 melanoma): 12.7 µM
GI50 (SR leukemia): 1460 nM
TGI (SR leukemia): 8.41 µM
GI50 (NCI-H226 lung): 6.36 µM
TGI (NCI-H226 lung): 87.4 µM
GI50 (PC-3 prostate): 5.32 µM
TGI (PC-3 prostate): 27.8 µM
GI50 (A498 renal): 2470 nM
TGI (A498 renal): 9.47 µM
GI50 (A549 NSCLC): 3.74 µM
TGI (A549 NSCLC): 46.1 µM
GI50 (786-0 renal): 3.07 µM
TGI (786-0 renal): 11.3 µM
GI50 (HS 578T breast): 2760 nM
TGI (HS 578T breast): 59.1 µM
GI50 (HCT-116 colon): 2300 nM
TGI (HCT-116 colon): 8.74 µM
GI50 (LOX IMVI melanoma): 2740 nM
TGI (LOX IMVI melanoma): 10.9 µM
GI50 (HCT-15 colon): 3.41 µM
TGI (HCT-15 colon): 62.9 µM

CCCCC(=O)OC[n+]1ccc2c(C)c3[nH]c4ccc(OC)cc4c3c(C)c2c1
TGI (RPMI-8226 leukemia): 0.983 µM
TGI (SF-268 CNS): > 100 µM
TGI (HCC-2998 colon): 1.8 µM
TGI (SK-OV-3 ovarian): 2930 nM
TGI (TK-10 renal): 15.2 µM
TGI (ACHN renal): 3.84 µM
TGI (EKVX NSCLC): 3.6 µM
TGI (SNB-19 CNS): 4.35 µM
TGI (DU-145 prostate): 4.82 µM
TGI (HL-60(TB) leukemia): > 100 µM
TGI (CAKI-1 renal): 4.64 µM
TGI (MALME-3M melanoma): > 33.3 µM
TGI (UO-31 renal): 4.08 µM
TGI (SK-MEL-2 melanoma): > 100 µM
TGI (SNB-75 CNS): 27.2 µM
TGI (UACC-257 melanoma): > 34.4 µM
TGI (T-47D breast): 14.2 µM
TGI (OVCAR-5 ovarian): 5.61 µM
TGI (MOLT-4 leukemia): 1.13 µM
TGI (SF-539 CNS): 1.92 µM
TGI (SR leukemia): 1.04 µM
TGI (HS 578T breast): 2.73 µM
TGI (HCT-116 colon): 1.37 µM
